Measured values taken from US12180215B2, “Substituted pyrrolo[3,4-d]imidazoles as JAK inhibitors” (HENAN MEDINNO PHARMACEUTICAL TECHNOLOGY CO., LTD., priority 2019, dated 2024).

Legend:
TYK2 = target: T1, TYK2 (Homo sapiens, UniProt P29597); experiment: TYK2 kinase ADP-Glo assay (Example 60)
T1 sequence (P29597 871-1187 limits assumed): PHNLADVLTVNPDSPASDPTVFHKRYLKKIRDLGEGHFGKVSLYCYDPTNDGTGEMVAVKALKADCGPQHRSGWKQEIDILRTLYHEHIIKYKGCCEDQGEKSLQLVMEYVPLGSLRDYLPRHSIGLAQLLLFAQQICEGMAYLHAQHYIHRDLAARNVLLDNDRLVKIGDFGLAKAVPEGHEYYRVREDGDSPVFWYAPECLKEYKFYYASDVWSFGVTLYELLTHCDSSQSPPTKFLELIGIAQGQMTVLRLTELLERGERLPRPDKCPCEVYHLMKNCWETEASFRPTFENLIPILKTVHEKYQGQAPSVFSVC

JAK3 = JAK3 (Homo sapiens, UniProt P52333); experiment: JAK3 kinase ADP-Glo assay (Example 60)
JAK1 = JAK1 (Homo sapiens, UniProt P23458); experiment: JAK1 kinase ADP-Glo assay (Example 60)
JAK2 = JAK2 (Homo sapiens, UniProt O60674); experiment: JAK2 kinase ADP-Glo assay (Example 60)
Sequence of JAK2 (O60674 826-1132 limits assumed): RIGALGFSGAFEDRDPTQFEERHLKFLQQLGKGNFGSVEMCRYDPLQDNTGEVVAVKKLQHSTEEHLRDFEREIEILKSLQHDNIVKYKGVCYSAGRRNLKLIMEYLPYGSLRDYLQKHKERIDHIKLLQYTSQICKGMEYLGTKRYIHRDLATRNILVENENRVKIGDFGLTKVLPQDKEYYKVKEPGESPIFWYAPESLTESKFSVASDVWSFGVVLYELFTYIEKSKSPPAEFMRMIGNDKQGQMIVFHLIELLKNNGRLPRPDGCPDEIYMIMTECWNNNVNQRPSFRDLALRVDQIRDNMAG

Sequence of JAK3 (P52333 795-1124 limits assumed): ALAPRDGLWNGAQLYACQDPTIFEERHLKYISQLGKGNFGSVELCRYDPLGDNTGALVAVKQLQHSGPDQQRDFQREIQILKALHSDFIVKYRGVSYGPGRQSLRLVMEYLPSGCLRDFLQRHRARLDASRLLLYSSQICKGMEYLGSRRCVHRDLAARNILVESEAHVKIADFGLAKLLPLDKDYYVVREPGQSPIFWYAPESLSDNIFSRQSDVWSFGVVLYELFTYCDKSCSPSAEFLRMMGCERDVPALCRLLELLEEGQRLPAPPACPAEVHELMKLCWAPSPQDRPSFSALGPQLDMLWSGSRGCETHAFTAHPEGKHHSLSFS
Sequence of JAK1 (P23458 850-1154 limits assumed): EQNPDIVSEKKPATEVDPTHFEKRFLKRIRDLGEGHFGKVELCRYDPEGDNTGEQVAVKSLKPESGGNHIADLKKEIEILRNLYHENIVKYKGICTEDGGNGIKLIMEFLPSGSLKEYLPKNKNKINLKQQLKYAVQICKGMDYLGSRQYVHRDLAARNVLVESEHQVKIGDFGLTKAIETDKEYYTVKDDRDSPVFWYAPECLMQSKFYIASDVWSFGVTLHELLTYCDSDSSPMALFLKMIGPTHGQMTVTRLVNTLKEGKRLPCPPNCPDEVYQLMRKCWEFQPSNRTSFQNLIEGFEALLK

| SMILES | IC50 (TYK2) [nM] | IC50 (JAK3) [nM] | IC50 (JAK1) [nM] | IC50 (JAK2) [nM] |
| --- | --- | --- | --- | --- |
| CCc1cc(O)c(F)cc1-c1ccc2c(-c3nc4c([nH]3)CN(CC3CC3)C4)n[nH]c2c1 [MDI-208, 4-(3-(5-(cyclopropylmethyl)-1,4,5,6-tetrahydropyrrolo[3,4-d]imidazol-2-yl)-1H-indazol-6-yl)-5-ethyl-2-fluorophenol] | 9.31 | 1.11 | 0.153 | 0.44 |
| CCc1cc(O)c(F)cc1-c1ccc2c(-c3nc4c([nH]3)CN(CC3CCC3)C4)n[nH]c2c1 [MDI-210, 4-(3-(5-(cyclobutylmethyl)-1,4,5,6-tetrahydropyrrolo[3,4-d]imidazol-2-yl)-1H-indazol-6-yl)-5-ethyl-2-fluorophenol] | 31.5 | 0.979 | 0.347 | 1.11 |
| CCc1cc(O)c(F)cc1-c1ccc2c(-c3nc4c([nH]3)CN(C(=O)c3ccnnc3)C4)n[nH]c2c1 [MDI-214, (2-(6-(2-ethyl-5-fluoro-4-hydroxyphenyl)-1H-indazol-3-yl)-pyrrolo[3,4-d]imidazol-5-(1H,4H,6H)-yl)(pyridazin-4-yl)ketone] | 2.8 | 0.352 | 0.303 | 0.273 |
| CCc1cc(O)c(F)cc1-c1ccc2c(-c3nc4c([nH]3)CN(C(=O)c3cccnn3)C4)n[nH]c2c1 [MDI-215, (2-(6-(2-ethyl-5-fluoro-4-hydroxyphenyl)-1H-indazol-3-yl)-pyrrolo[3,4-d]imidazol-5-(1H,4H,6H)-yl)(pyridazin-3-yl)ketone] | 1.58 | 0.308 | 0.197 | 0.277 |
| CCc1cc(O)c(F)cc1-c1ccc2c(-c3nc4c([nH]3)CN(C(=O)N3CC[C@H](O)C3)C4)n[nH]c2c1 [MDI-216, (S)-(2-(6-(2-ethyl-5-fluoro-4-hydroxyphenyl)-1H-indazol-3-yl)-4,6-dihydropyrrolo[3,4-d]imidazol-5-(1H)-yl)(3-hydroxylpyrrolidin-1-yl)ketone] | 1.62 | 0.247 | 0.134 | 0.233 |
| CCc1cc(O)c(F)cc1-c1ccc2c(-c3nc4c([nH]3)CN(S(=O)(=O)C3CC3)C4)n[nH]c2c1 [MDI-218, 4-(3-(5-(cyclopropanesulfonyl)-1,4,5,6-tetrahydropyrrolo[3,4-d]imidazol-2-yl)-1H-indazol-6-yl)-5-ethyl-2-fluorophenol] | 1.75 | 0.948 | 0.825 | 0.614 |
| CCc1cc(O)c(F)cc1-c1ccc2c(-c3nc4c([nH]3)CN(S(=O)(=O)C3CCC3)C4)n[nH]c2c1 [MDI-219, 4-(3-(5-(cyclobutylsulfonyl)-1,4,5,6-tetrahydropyrrolo[3,4-d]imidazol-2-yl)-1H-indazol-6-yl)-5-ethyl-2-fluorophenol] | 1.88 | 2.29 | 1.38 | 1.38 |
| CCc1cc(O)c(F)cc1-c1ccc2c(-c3nc4c([nH]3)CN(S(=O)(=O)C3CCCC3)C4)n[nH]c2c1 [MDI-220, 4-(3-(5-(cyclopentylsulfonyl)-1,4,5,6-tetrahydropyrrolo[3,4-d]imidazol-2-yl)-1H-indazol-6-yl)-5-ethyl-2-fluorophenol] | 5.56 | 3.15 | 2.02 | 1.38 |
| CCc1cc(O)c(F)cc1-c1ccc2c(-c3nc4c([nH]3)CN(Cc3cnn(C)c3)C4)n[nH]c2c1 [MDI-221, 5-ethyl-2-fluoro-4-(3-(5-((1-methyl-1H-pyrazol-4-yl)methyl)-1,4,5,6-tetrahydropyrrolo[3,4-d]imidazol-2-yl)-1H-indazol-6-yl)phenol] | 7.6 | 0.379 | 0.128 | 0.363 |
| CCc1cc(O)c(F)cc1-c1ccc2c(-c3nc4c([nH]3)CN(C3CCCC3)C4)n[nH]c2c1 [MDI-224, 4-(3-(5-cyclopentyl-1,4,5,6-tetrahydropyrrolo[3,4-d]imidazol-2-yl)-1H-indazol-6-yl)-5-ethyl-2-fluorophenol] | 16.1 | 2.01 | 0.248 | 0.754 |
| CCc1cc(O)c(F)cc1-c1ccc2c(-c3nc4c([nH]3)CN(C3CCOCC3)C4)n[nH]c2c1 [MDI-225, 5-ethyl-2-fluoro-4-(3-(5-(tetrahydro-2H-pyran-4-yl)-1,4,5,6-tetrahydropyrrolo[3,4-d]imidazol-2-yl)-1H-indazol-6-yl)phenol] | 3.5 | 0.487 | 0.226 | 0.39 |
| CCC(=O)N1Cc2nc(-c3n[nH]c4cc(-c5cc(F)c(O)cc5CC)ccc34)[nH]c2C1 [MDI-227, 1-(2-(6-(2-ethyl-5-fluoro-4-hydroxyphenyl)-1H-indazol-3-yl)-4,6-dihydropyrrolo[3,4-d]imidazol-5-(1H)-yl)propan-1-one] | 3.89 | 0.441 | 0.224 | 0.246 |
| CCc1cc(O)c(F)cc1-c1ccc2c(-c3nc4c([nH]3)CN(C(=O)C(C)C)C4)n[nH]c2c1 [MDI-228, 1-(2-(6-(2-ethyl-5-fluoro-4-hydroxyphenyl)-1H-indazol-3-yl)-4,6-dihydropyrrolo[3,4-d]imidazol-5-(1H)-yl)-2-methylpropan-1-one] | 4.76 | 0.565 | 0.398 | 0.355 |
| CCc1cc(O)c(F)cc1-c1ccc2c(-c3nc4c([nH]3)CN(C(=O)CC3CC3)C4)n[nH]c2c1 [MDI-229, 2-cyclopropyl-1-(2-(6-(2-ethyl-5-fluoro-4-hydroxyphenyl)-1H-indazol-3-yl)-4,6-dihydropyrrolo[3,4-d]imidazol-5-(1H)-yl)ethan-1-one] | 4.71 | 0.481 | 0.753 | 0.356 |
| CCc1cc(O)c(F)cc1-c1ccc2c(-c3nc4c([nH]3)CN(C(=O)CC(C)C)C4)n[nH]c2c1 [MDI-230, 1-(2-(6-(2-ethyl-5-fluoro-4-hydroxyphenyl)-1H-indazol-3-yl)-4,6-dihydropyrrolo[3,4-d]imidazol-5-(1H)-yl)-3-methylbutan-1-one] | 6.57 | 0.821 | 0.819 | 0.555 |
| CCc1cc(O)c(F)cc1-c1ccc2c(-c3nc4c([nH]3)CN(C(=O)N3CCCC3)C4)n[nH]c2c1 [MDI-231, (2-(6-(2-ethyl-5-fluoro-4-hydroxyphenyl)-1H-indazol-3-yl)-4,6-dihydropyrrolo[3,4-d]imidazol-5-(1H)-yl)(pyrrolidin-1-yl)ketone] | 1.31 | 0.893 | 0.53 | 1.17 |
| CCc1cc(O)c(F)cc1-c1ccc2c(-c3nc4c([nH]3)CN(C(=O)N3CCC3)C4)n[nH]c2c1 [MDI-232, Azetidin-1-yl(2-(6-(2-ethyl-5-fluoro-4-hydroxyphenyl)-1H-indazol-3-yl)-4,6-dihydropyrrolo[3,4-d]imidazol-5-(1H)-yl)ketone] | 2.26 | 0.868 | 0.745 | 1.04 |
| CCc1cc(O)c(F)cc1-c1ccc2c(-c3nc4c([nH]3)CN(C(=O)N3CC[C@H](O)C3)C4)n[nH]c2n1 [MDI-255, (S)-(2-(6-(2-ethyl-5-fluoro-4-hydroxyphenyl)-1H-pyrazolo[3,4-b]pyridine-3-yl)-4,6-dihydropyrrolo[3,4-d]imidazol-5(1H)-yl)(3-hydroxylpyrrolidin-1-yl)ketone] |  |  | 57.2 | 37.4 |
